Data: US20210299176A1, “COMPOSITIONS AND METHODS FOR TREATING CANCER AND AUTOIMMUNE DISEASES” (CEDARS-SINAI MEDICAL CENTER, priority 2018, published 2021)

Columns and labels:
[1] = system: CD4+CD25- cells (T effector cells); experiment: T cell suppression assay (CFSE proliferation of T effector cells, FACS); type: cell-based, human; details: for inhibition (decrease) of T cell proliferation: T effector without T-reg
Description: FIGS. 1A-1B show the results of where PBMC was isolated (Ficoll, GE Healthcare) from the WBC cone collected from healthy platelet donor. Cells were washed and passed through 40 um cell strainer before being stained with T cell surface antibodies. Then cells were put on cell sorter (BD FACSARIA III). Specific cell populations were collected as follows: CD4^+CD25^− cells (T effector cells), CD4^+CD25^+CD45RA^+CD127^− cells (T regulatory cells) and CD3^− cells (serve as Antigen Presenting Cells, APC). T effector cells were labeled with CellTrace CFSE (Invitrogen), heavily washed before cell number counting. Effector cells and T-regs were then mixed together at 1:1 ratio in culture media (RPMI 1640, 10% FBS, Pen-Strep and 1% NEAA) which enhanced with anti-CD3 (3 ug/ml) anti-CD28 (2 ug/ml) antibodies. APCs were treated with Mitomycin (50 ug/ml) for 30 minutes at 37° C., 5% CO2 incubator, then added to culture mix (APC:T-eff 2:1) as a proliferation co-stimulator. Cell mixture was incubated at 37° C., 5% CO2 for 6 days before being re-stained with T cell surface markers (CD4, CD25) and sent for FACS analysis. (A) T-eff fully stimulated; (B) T-eff fully stimulated+T-reg (1:1).
PBMC was isolated and specific human T cell populations were collected as follows: CD4^+CD25^− cells (T effector cells), CD4^+CD25^+CD45RA^+CD127^− cells (T regulatory cells) and CD3^− cells (serve as Antigen Presenting Cells, APC). T effector cells were labeled with CellTrace CFSE and effector cells and T-regs were then mixed together at 1:1 ratio in culture media (RPMI 1640, 10% FBS, Pen-Strep and 1% NEAA) which enhanced with anti-CD3 (3 ug/ml) anti-CD28 (2 ug/ml) antibodies. APCs were treated with Mitomycin (50 ug/ml) for 30 minutes at 37° C., 5% CO2 incubator, then added to culture mix (APC:T-eff 2:1) as a proliferation co-stimulator, incubated, and sent for FACS analysis. Molecule 11702 agonist and 11704 antagonist were added to treat groups respectively at a concentration gradient of 5 uM, 25 uM and 50 uM.
PBMC was isolated (Ficoll, GE Healthcare) from the WBC cone collected from healthy platelet donor. Cells were washed and passed through 40 um cell strainer before being stained with T cell surface antibodies. Then cells were put on cell sorter (BD FACSARIA III). Specific cell populations were collected as follows: CD4^+CD25^− cells (T effector cells), CD4^+CD25^+CD45RA^+CD127^− cells (T regulatory cells) and CD3^− cells (serve as Antigen Presenting Cells, APC). T effector cells were labeled with CellTrace CFSE (Invitrogen), heavily washed before cell number counting. Effector cells and T-regs were then mixed together at 1:1 ratio in culture media (RPMI 1640, 10% FBS, Pen-Strep and 1% NEAA) which enhanced with anti-CD3 (3 ug/ml) anti-CD28 (2 ug/ml) antibodies. […]

B16 melanoma = B16 melanoma implantation in C57 BL mice, treatment with GITR agonist; type: in vivo; details: intraperitoneal 30 mg/kg twice per week vs DMSO control; p=0.0333, log rank
Method: After implantation of B16 melanoma, C57 BL mice underwent treatment with 11702 GITR agonist or DMSO control. (A) Animals lived longer after GITR agonist intraperitoneal 30 mg/kg treatment twice per week (p=0.0333, log rank). (B) Tumor volume was inhibited in 11702 treated animals (p<0.05, Anova).
After implantation of B16 melanoma, C57 BL mice underwent treatment with 11702 GITR agonist or DMSO control. […] (B) Tumor volume was inhibited in 11702 treated animals (p<0.05, Anova).

Row | Compound | inhibition at 50 µM ([1]; Homo sapiens, T-cell, T effector + T-reg (1:1), 50 uM, read-out: inhibition (decrease) of proliferation compared to base line) [%] | effect on T effector cell population ([1]; T cell suppression assay, with and without Tregs, more effective in the presence of Tregs) | inhibition (decrease) of T cell proliferation ([1]; 5 uM) | inhibition (decrease) of T cell proliferation ([1]; 25 um) | survival of animals (B16 melanoma)
1 | O=C(CCCCC(=O)NN=Cc1cccc(O)c1)NN=Cc1cccc(O)c1 [RMGL171104] | 55.9 | dose dependent retraction of T effector cells | no significant effect | no significant effect | –
2 | OCC1OC(Nc2ccc(-c3ccc(NC4CC(O)C(CO)O4)cc3)cc2)CC1O (centres unmarked) [RMGL171102] | – | – | – | – | lived longer
